EC50 data for 31 compounds are collected here from patent US9951065B2 (Gilead Sciences, Inc., priority 2015, dated 2018).

T1 sequence (P14902 whole entry): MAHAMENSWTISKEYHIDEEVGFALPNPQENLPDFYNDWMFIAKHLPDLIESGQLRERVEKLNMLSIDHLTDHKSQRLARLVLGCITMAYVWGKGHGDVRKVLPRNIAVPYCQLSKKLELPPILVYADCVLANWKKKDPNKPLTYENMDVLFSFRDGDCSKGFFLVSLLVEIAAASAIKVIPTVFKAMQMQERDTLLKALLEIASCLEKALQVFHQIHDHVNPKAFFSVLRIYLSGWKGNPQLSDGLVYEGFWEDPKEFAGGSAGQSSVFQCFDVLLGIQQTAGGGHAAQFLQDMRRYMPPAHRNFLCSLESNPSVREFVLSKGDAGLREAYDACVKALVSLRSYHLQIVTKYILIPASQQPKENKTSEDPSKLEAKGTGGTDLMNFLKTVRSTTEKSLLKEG

This experiment addresses T1, IDO1 (Homo sapiens, UniProt P14902).
T1 construct: HeLa cells were treated with a test compound in the presence of IFNγ, which induces IDO1 expression; host or cells: H1-HeLa cells, IDO1 induced with IFNγ
The experiment is described as follows: Cell-based (HeLa) assay for measurement of IDO1 inhibition (kynurenine levels in supernatant after IFNγ induction). Particulars: HeLa cells, IFNγ-induced IDO1, kynurenine in supernatant after 48 hour incubation; geometric mean of a minimum of four determinations. On the procedure:
Example 509. Cell-Based (HeLa) Assay for Measurement of IDOL Inhibition
To measure IDO1 inhibition in tissue culture, HeLa cells were treated with a test compound in the presence of IFNγ, which induces IDO1 expression. Following incubation, cell supernatants were assayed for kynurenine levels, an indicator of IDO1 activity.
H1-HeLa cells (ATCC #CRL-1958) were seeded in 384-well plates (Greiner #82051-282) at a volume of 50 μL/well in DMEM (Corning #15-018-CM) supplemented with 10% FBS (Corning #35-011-CV) and 1% P/S/G (Corning #30-009-CL) at a density of 1,250 cells/well and incubated overnight at 37° C., 5% CO2/100% humidity. The following day, the test compounds were added in DMSO (0.5% final) at various concentrations, and IDO1 was inducibly expressed by the addition of 50 uL/well of […] of INFγ (Peprotech #300-02) in cell plating media. As a […] control, 50 uL of the cell plating media without IFNγ was added to several wells. Following a 48 hour incubation, the plates were spun down at 1,200 RPM for 5 min at 10° C. 65 μL/well of the supernatant was then transferred to new 384-well plates (Thermo #262160) that contained 10 uL/well of 30% TCA (Sigma #TO699), and the plates were sealed and incubated at 60° C. for 30 min. The plates were then centrifuged for 15 min at 2,000 RPM at 10° C. 40 μL/well of the supernatant was transferred to new 384-well plates (Thermo #262160) and was reacted with 40 μL/well of 2% (w/v) p-dimethlyaminobenzaldehyde (Sigma #156417) in glacial acetic acid (Sigma #A6283). The reaction was incubated at room temperature for 10 min and absorbance at 480 nm was read using a PerkinElmer Envision plate reader.
Data in Table 1 were normalized based on positive (−IFNγ) and negative (+IFNγ) controls and EC50 values were calculated from the fit of the dose response curves to a four-parameter equation. All EC50 values represent geometric mean values of a minimum of four determinations. These assays generally produced results within 2-fold of the reported mean.
Broadly, the EC50 is the midpoint of the concentration-response curve. `Cc1ccc(/C(=N/O)Nc2ccc(F)c(Cl)c2)c2[nH]cnc12` [Example 1, N-(3-Chloro-4-fluorophenyl)-N′-hydroxy-4-methyl-1H-benzo[d]imidazole-7-carboximidamide] came in with a half-maximal effective concentration (EC50) of 1220 nM.

The compound `O/N=C(\Nc1ccc(F)c(Cl)c1)c1ccc(OC(F)(F)F)c2nc[nH]c12` [Example 2, N-(3-Chloro-4-fluorophenyl)-N′-hydroxy-4-(trifluoromethoxy)-1H-benzo[d]imidazole-7-carboximidamide] displayed an EC50 of 2460 nM.

With `O/N=C(\Nc1ccc(F)c(Cl)c1)c1c(F)ccc2nc[nH]c12` [Example 3, N-(3-Chloro-4-fluorophenyl)-6-fluoro-N′-hydroxy-1H-benzo[d]imidazole-7-carboximidamide], the EC50 was found to be 4800 nM.

Compound `O/N=C(\Nc1ccc(F)c(Cl)c1)c1cc(F)cc2nc[nH]c12` [Example 4, N-(3-Chloro-4-fluorophenyl)-5-fluoro-N′-hydroxy-1H-benzo[d]imidazole-7-carboximidamide] gave an EC50 of 527 nM.

Compound `O/N=C(\Nc1ccc(F)c(Cl)c1)c1ccc(F)c2nc[nH]c12` [Example 5, N-(3-Chloro-4-fluorophenyl)-4-fluoro-N′-hydroxy-1H-benzo[d]imidazole-7-carboximidamide] gave an EC50 of 542 nM.

With `O/N=C(\Nc1ccc(F)c(Cl)c1)c1ccc(Cl)c2nc[nH]c12` [Example 6, 4-Chloro-N-(3-chloro-4-fluorophenyl)-N′-hydroxy-1H-benzo[d]imidazole-7-carboximidamide], it took 793 nM to reach a half-maximal effect (EC50).

In turn, `O/N=C(\Nc1ccc(F)c(Cl)c1)c1ccc(C(F)(F)F)c2nc[nH]c12` [Example 7, N-(3-Chloro-4-fluorophenyl)-N′-hydroxy-4-(trifluoromethyl)-1H-benzo[d]imidazole-7-carboximidamide] returned an EC50 of 926 nM.

In turn, `O/N=C(\Nc1ccc(F)c(Cl)c1)c1cccc2nc[nH]c12` [Example 8, N-(3-Chloro-4-fluorophenyl)-N′-hydroxy-1H-benzo[d]imidazole-7-carboximidamide] yielded an EC50 of 1790 nM.

`Cc1c(F)cc(/C(=N/O)Nc2ccc(F)c(Cl)c2)c2[nH]cnc12` [Example 9, N-(3-Chloro-4-fluorophenyl)-6-fluoro-N′-hydroxy-7-methyl-3H-benzimidazole-4-carboximidamide] returned a half-maximal effective concentration (EC50) of 634 nM.

Regarding `O/N=C(\Nc1ccc(F)c(Cl)c1)c1cc(F)c(F)c2nc[nH]c12` [Example 10, N-(3-chloro-4-fluorophenyl)-4,5-difluoro-N′-hydroxy-1H-benzo[d]imidazole-7-carboximidamide], the midpoint of the response, the EC50, lay at 438 nM.

In the case of `O/N=C(\Nc1ccc(F)c(Cl)c1)c1cc(Cl)cc2[nH]cnc12` [Example 11, 6-Chloro-N-(3-chloro-4-fluorophenyl)-N′-hydroxy-1H-benzo[d]imidazole-4-carboximidamide], a half-maximal response (EC50) required 7600 nM.

The compound `O/N=C(\Nc1ccc(F)c(Cl)c1)c1ccc(Br)c2nc[nH]c12` [Example 12, 4-Bromo-N-(3-chloro-4-fluorophenyl)-N′-hydroxy-1H-benzo[d]imidazole-7-carboximidamide] returned an EC50 of 660 nM.

The compound `Nc1nc2c(F)c(F)cc(/C(=N/O)Nc3ccc(F)c(Cl)c3)c2[nH]1` [Example 13, 2-Amino-N-(3-chloro-4-fluorophenyl)-4,5-difluoro-N′-hydroxy-1H-benzo[d]imidazole-7-carboximidamide] displayed an EC50 of 2740 nM.

As for `Nc1nc2c(F)c(F)cc(/C(=N/O)Nc3ccc(F)c(Br)c3)c2[nH]1` [Example 14, 2-Amino-N-(3-bromo-4-fluorophenyl)-4,5-difluoro-N′-hydroxy-1H-benzo[d]imidazole-7-carboximidamide], the EC50 was 494 nM.

As for `Nc1nc2c(F)c(F)cc(/C(=N/O)Nc3cccc(Br)c3)c2[nH]1` [Example 15, 2-Amino-N-(3-bromophenyl)-4,5-difluoro-N′-hydroxy-1H-benzo[d]imidazole-7-carboximidamide], the half-maximal effective concentration (EC50) worked out at 570 nM.

For the compound `Nc1nc2c(F)c(F)cc(/C(=N/O)Nc3cccc(Cl)c3)c2[nH]1` [Example 16, 2-Amino-N-(3-chlorophenyl)-4,5-difluoro-N′-hydroxy-1H-benzo[d]imidazole-7-carboximidamide], a half-maximal response (EC50) required 607 nM.

`Nc1nc2c(F)c(F)cc(/C(=N/O)Nc3ccc(F)c(C(F)(F)F)c3)c2[nH]1` [Example 17, 2-Amino-4,5-difluoro-N-(4-fluoro-3-(trifluoromethyl)phenyl)-N′-hydroxy-1H-benzo[d]imidazole-7-carboximidamide] gave a concentration giving a half-maximal response (EC50) of 1090 nM.

`Nc1nc2c(F)ccc(/C(=N/O)Nc3cccc(Br)c3)c2[nH]1` [Example 18, 2-Amino-N-(3-bromophenyl)-4-fluoro-N′-hydroxy-1H-benzo[d]imidazole-7-carboximidamide] showed a 50% effective concentration (EC50) of 312 nM.

With `Nc1nc2c(F)ccc(/C(=N/O)Nc3ccc(F)c(Br)c3)c2[nH]1` [Example 19, 2-Amino-N-(3-bromo-4-fluorophenyl)-4-fluoro-N′-hydroxy-1H-benzo[d]imidazole-7-carboximidamide], the 50% effective concentration (EC50) was 456 nM.

As for `Nc1nc2c(F)ccc(/C(=N/O)Nc3cccc(Cl)c3)c2[nH]1` [Example 20, 2-Amino-N-(3-chlorophenyl)-4-fluoro-N′-hydroxy-1H-benzo[d]imidazole-7-carboximidamide], the 50% effective concentration (EC50) was determined as 404 nM.

For the compound `Nc1nc2c(F)ccc(/C(=N/O)Nc3ccc(F)c(C(F)(F)F)c3)c2[nH]1` [Example 21, 2-Amino-4-fluoro-N-(4-fluoro-3-(trifluoromethyl)phenyl)-N′-hydroxy-1H-benzo[d]imidazole-7-carboximidamide], the EC50 was found to be 725 nM.

In turn, `Nc1nc2c(F)ccc(/C(=N/O)Nc3ccc(F)c(Cl)c3)c2[nH]1` [Example 22, 2-Amino-N-(3-chloro-4-fluorophenyl)-4-fluoro-N′-hydroxy-1H-benzo[d]imidazole-7-carboximidamide] came in with an EC50 of 382 nM.

Turning to `O/N=C(\Nc1ccc(F)c(Cl)c1)c1cc(F)c(F)c2nc(NCCN3CCOCC3)[nH]c12` [Example 23, N-(3-Chloro-4-fluorophenyl)-4,5-difluoro-N′-hydroxy-2-((2-morpholinoethyl)amino)-1H-benzo[d]imidazole-7-carboximidamide], the EC50 was 346 nM.

In turn, `COCCCNCc1nc2c(F)c(F)cc(/C(=N/O)Nc3cccc(Cl)c3)c2[nH]1` [Example 24, N-(3-Chlorophenyl)-4,5-difluoro-N′-hydroxy-2-(((3-methoxypropyl)amino)methyl)-1H-benzo[d]imidazole-7-carboximidamide] showed an EC50 of 1920 nM.

In turn, `O/N=C(\Nc1cccc(Cl)c1)c1cc(F)c(F)c2nc(CNCC3CC3)[nH]c12` [Example 25, N-(3-Chlorophenyl)-2-(((cyclopropylmethyl)amino)methyl)-4,5-difluoro-N′-hydroxy-1H-benzo[d]imidazole-7-carboximidamide] gave an EC50 of 1460 nM.

Regarding `CN(C)Cc1nc2c(F)c(F)cc(/C(=N/O)Nc3cccc(Cl)c3)c2[nH]1` [Example 26, N-(3-Chlorophenyl)-2-((dimethylamino)methyl)-4,5-difluoro-N′-hydroxy-1H-benzo[d]imidazole-7-carboximidamide], the midpoint of the response, the EC50, lay at 1210 nM.

`CC(C)NCc1nc2c(F)c(F)cc(/C(=N/O)Nc3cccc(Cl)c3)c2[nH]1` [Example 27, N-(3-Chlorophenyl)-4,5-difluoro-N′-hydroxy-2-((isopropylamino)methyl)-1H-benzo[d]imidazole-7-carboximidamide] came in with a half-maximal effective concentration (EC50) of 839 nM. The EC50 values of the last two compounds are within 1.5-fold of each other.

For the compound `CCNCc1nc2c(F)c(F)cc(/C(=N/O)Nc3cccc(Cl)c3)c2[nH]1` [Example 28, N-(3-Chlorophenyl)-2-((ethylamino)methyl)-4,5-difluoro-N′-hydroxy-1H-benzo[d]imidazole-7-carboximidamide], a half-maximal response (EC50) required 801 nM.

Compound `OCc1nc2c(F)c(F)cc(/C(=N/O)Nc3cccc(Cl)c3)c2[nH]1` [Example 29, N-(3-Chlorophenyl)-4,5-difluoro-N′-hydroxy-2-(hydroxymethyl)-1H-benzo[d]imidazole-7-carboximidamide] yielded a concentration for a half-maximal effect (EC50) of 1540 nM.

`CNCc1nc2c(F)c(F)cc(/C(=N/O)Nc3cccc(Cl)c3)c2[nH]1` [Example 30, N-(3-Chlorophenyl)-4,5-difluoro-N′-hydroxy-2-((methylamino)methyl)-1H-benzo[d]imidazole-7-carboximidamide] came in with an EC50 of 1110 nM.

As for `NCc1nc2c(F)c(F)cc(/C(=N/O)Nc3cccc(Cl)c3)c2[nH]1` [Example 31, 2-(Aminomethyl)-N-(3-chlorophenyl)-4,5-difluoro-N′-hydroxy-1H-benzo[d]imidazole-7-carboximidamide], the EC50 turned out to be 1680 nM.
